Laboratory results: US20110077230A1, “COPPER ORGANOCOMPLEXES, USE THEREOF AS ANTITUMOR MEANS AND FOR PROTECTING HEALTHY TISSUE FROM IONIZING RADIATION” (CHARITE - UNIVERSITATSMEDIZIN BERLIN, priority 2008, published 2011)

What was measured:
[1] = test system: human mammary gland tumor cells, T2N1M0 stage; assay: In vitro effect on human mammary gland tumor cells, Experiment 1; assay type: cell-based
Method: (§1) Tumor cells were collected from the surgical material of female patients suffering from mammary carcinoma at two different stages. The tumor tissue was added with sterile 0.25% trypsin solution and centrifuged repeatedly in RPMI-1640 nutrient medium for 15 minutes at 1500 revolutions per minute. The amount of resulting cells was counted and the suspension of tumor cells divided into five equal groups. The RPMI-1640 nutrient medium was added with 12% fetal calf serum. The cells were incubated for 48 h at 37° C. in a 5% CO2 stream.
(§2) The preparations were dissolved in 4% DMSO and physiological saline and acidified with HCl.
(§3) Two experiments were performed using cancer cells derived from tumors of different stages. To differentiate the various stages of cancer, the TNM classification is used internationally which takes into account the tumor size (T), lymph node affection (N=nodal status) and the extent of metastasis (M).
(T2: tumor up to 5 cm; N1; metastases in 3 lymph nodes; M0: no distant metastases). A suspension including 40 million cells was added with 50 μl of each preparation.
(§4) The 5 groups with cancer cells received the following:
(§5) After subjecting the preparations to flow incubation for 60 minutes, trypan blue stained cells were produced, and dead cells and apoptosis could be determined; dead cells and apoptotic cells were determined in specific units of time and morphological findings.

[2] = test system: Ehrlich ascites adenocarcinoma; assay: Ehrlich ascites adenocarcinoma in mice; assay type: in vivo, white mice
Method: The tumor was implanted intraabdominally in white mice of no particular race.
Group I received complex A orally as a suspension in olive oil at a dosage of 10 mg/kg 3, 4, 5, 6, 7, 8, 9 and 10 days after tumor implantation.
Group II received the same treatment, but using sarcolysine instead of complex A.
Group III received no treatment.
The animals were sacrificed and examined on the 11th day after tumor implantation.

melanoma B 16 = assay: B 16 melanoma in mice, intraabdominal administration; assay type: in vivo, mice of the line C 57Bl; details: 5 mg/kg intraabdominally
Method: The melanoma B 16 was implanted in 20 mice of the line C 57Bl by subcutaneous injection into the right thigh. The animals were divided into four groups of five mice each. Group I received complex A at a dosage of 7 mg/kg, dissolved in DMSO, which was administered intraabdominally in a 4% suspension in physiological saline. Each administration was performed 3, 5, 7 and 9 days after trans-plantation of the tumor.
Group II was treated as group I, but using a dosage of 5 mg/kg.
Group III was treated as group I, but received 5 mg/kg of melphalan hydrochloride instead of complex A.
Group IV remained untreated.

[3] = test system: human mammary gland tumor cells, T4N2M0 stage; assay: In vitro effect on human mammary gland tumor cells, Experiment 2; assay type: cell-based
Method: as §1, §2, §3
(T3: large tumor spreading into the tissue surrounding the breast; N2: metastases up to 9 axillary lymph nodes, M0: no distant metastases). A suspension including 40 million cells was added with 50 μl of each preparation.
as §4, §5

neutrophils = assay: Antioxidant properties: ROS formation in neutrophils; assay type: cell-based, male mice of the NMRI line; details: triggered by PMA and fMLF, depending on the dosage
From the text: The complexes A and C show a pronounced effect as antioxidant in an environment having an excess of reactive oxygen species (ROS). Thus, ROS formation in neutrophils obtained from male mice of the NMRI line was triggered by two activators: phorbol 12-myristate 13-acetate (PMA) and N-formyl-methionyl-leucylphenylalanine (fMLF).

[4] = test system: colon adenocarcinoma tumor (AKATOL); assay: Transplanted colon adenocarcinoma (AKATOL), peroral administration; assay type: in vivo, mice of the BALB line; details: 10 mg/kg peroral in olive oil
Method: Tumor cells were transplanted in mice of the BALB line by injection into the thighs. 3 of 4 groups received the respective preparation on the peroral route 3, 4, 5, 6, 7, 8, 9 and 10 days after tumor implantation.
Group I: 10 mg/kg complex A suspended in olive oil.
Group II: 5 mg/kg complex A suspended in olive oil.
Group III: 10 mg/kg sarcolysine suspended in olive oil.
On day 21 of the experiment the animals were sacrificed and examined.

NC(Cc1ccc(N(CCCl)CCCl)cc1)C(=O)O (racemic) [sarcolysine, 4-[bis(2-chloroethyl)amino]-D,L-phenylalanine, reference compound]
Living cells, % ([1]; Experiment 1, T2N1M0): 54.0 ± 2.22% | Dead cells, % ([1]; Experiment 1, T2N1M0, 40 million cells, 50 μl of preparation): 46.0 ± 2.22% | % inhibition ([2]; 10 mg/kg orally): 47.4% | Average MI of bone marrow ([2]; 10 mg/kg orally): 0.52 ± 0.26 ‰ | Average MI of tumor cells ([2]; 10 mg/kg orally): 2.0 ± 1.87 ‰ | Average number of tumor cells ([2]; 10 mg/kg orally in olive oil, days 3 to 10, day 11): 77 10^6 | Apoptotic index AI (melanoma B 16): 3.07 ‰ | Bone marrow index MI BM (melanoma B 16): 1.88 ‰ | Inhibition of tumor growth, mass percent (melanoma B 16): mass percent 62.87% | Inhibition of tumor growth, volume percent (melanoma B 16): volume percent 35.78% | Mitotic index of tumor cells MI (melanoma B 16): 2.43 ‰ | Average volume of tumor (melanoma B 16; days 3, 5, 7, 9): 1.4 cm^3 | Average weight of tumor (melanoma B 16; days 3, 5, 7, 9): 482.6 mg | Living cells, % ([3]; Experiment 2, T4N2M0): 51.0 ± 2.23% | Dead cells, % ([3]; Experiment 2, T4N2M0, 40 million cells, 50 μl of preparation): 49.0 ± 2.23% | formation of ROS in neutrophils (neutrophils): hardly achieved | % inhibition [4]: 43% | Average weight of tumor ([4]; days 3 to 10, day 21): 1.85 g

O=c1[nH]c(=O)n(C2CCCO2)cc1F (stereo not shown) [tegafur, N-(2-furanidil)-5-fluorouracil, reference compound]
formation of ROS in neutrophils (neutrophils): hardly achieved
